Source: patent US11174464B2, “Method for preparing osteoblasts and osteoblast inducer” (KYOTO PREFECTURAL PUBLIC UNIVERSITY CORPORATION, priority 2014, dated 2021)

Experiments:
human Runx2 gene = test: Real-time RT-PCR of Runx2 mRNA in cultured HDF; assay type: cell-based; conditions: induction medium, 28 days (FIG. 17)
Description: The culture was performed as in “1” above by adding the stated compounds.
Then, total RNA was collected from the cells using ISOGEN II, and cDNA was synthesized using ReverTra Ace qPCR RT Master Mix. Real-time PCR Master Mix, and a TaqMan probe and primers specific to human Runx2 gene were added, and real-time RT-PCR was performed using an AB7300 Real-Time PCR System.

[1] = test system: normal human dermal fibroblast (HDF) strain; test: Alizarin Red S staining of calcified bone matrix in fibroblasts cultured in induction medium; conditions: for Alizarin Red S staining intensity (OD 550-650 nm), ability to produce calcified matrix: 28 days (FIG. 10); for Alizarin Red S staining images and intensity (OD 550-650 nm), ability to produce calcified matrix: 28 days (FIG. 19)
[2] = test system: human alkaline phosphatase (ALP) gene; test: Real-time RT-PCR of ALP mRNA in cultured HDF; assay type: cell-based; conditions: 10% FBS induction medium, 28 days, relative to normal human fibroblasts = 1 (FIG. 13)
Description: Then, total RNA was collected from the cells using ISOGEN II, and cDNA was synthesized using ReverTra Ace qPCR RT Master Mix. Real-time PCR Master Mix, TaqMan probes, specific primers, and cDNA were mixed, and real-time RT-PCR was performed using an AB7300 Real-Time PCR System to quantify the mRNA of Runx2, osteocalcin (OC), and alkaline phosphatase (ALP) genes. […] Further, RNA was harvested from human osteoblasts, and the same analysis was performed.
The culture was performed as in “2-1” above by adding the stated compounds.
Then, total RNA was collected from the cells using ISOGEN II, and cDNA was synthesized using ReverTra Ace qPCR RT Master Mix. Real-time PCR Master Mix, and a TaqMan probe and primers specific to a human alkaline phosphatase (ALP) gene were added, and real-time RT-PCR was performed using an AB7300 Real-Time PCR System. Furthermore, total RNA was extracted from osteoblasts from normal human bone, and analysis was performed in a similar manner.
Furthermore, total RNA was extracted from osteoblasts from normal human bone, and analysis was performed in a similar manner.
Twenty-eight days after the culture, the mRNA expression of ALP gene in the cells in each well was analyzed by real-time RT-PCR, as in “2-3” above. Furthermore, total RNA was extracted from osteoblasts from normal human bone, and analysis was performed in a similar manner.

[3] = test system: Normal human white preadipocytes (HWPs); test: Alizarin Red S staining, induction from normal human white preadipocytes; assay type: cell-based; conditions: induction medium with 10% FBS, 21 days (FIG. 23)
human osteocalcin (OC) = test: Real-time RT-PCR of osteocalcin (OC) mRNA in cultured HDF; assay type: cell-based; conditions: 5% human serum induction medium, 28 days (FIG. 16)
Description: The culture was performed as in “2-6” above by adding the stated compounds.
Then, total RNA was collected from the cells using ISOGEN II, and cDNA was synthesized using ReverTra Ace qPCR RT Master Mix. Real-time PCR Master Mix, and a TaqMan probe and primers specific to human osteocalcin (OC) were added, and real-time RT-PCR was performed using an AB7300 Real-Time PCR System.

| SMILES | ALP mRNA expression by real-time RT-PCR [2] | Runx2 mRNA expression by real-time RT-PCR (human Runx2 gene) | Alizarin Red S staining intensity (OD 550-650 nm), ability to produce calcified matrix ([1]; induction medium with 10% FBS) | Alizarin Red S staining images and intensity (OD 550-650 nm), ability to produce calcified matrix [1] | Alizarin Red S staining images, ability to produce calcified matrix [3] | Alizarin Red S staining images and intensity, ability to produce calcified matrix ([1]; induction medium with 5% human serum, 28 days (FIG. 12)) | Alizarin Red S staining images and intensity, ability to produce calcified matrix ([1]; induction medium with 10% FBS, 28 days (FIG. 11)) | osteocalcin (OC) mRNA expression by real-time RT-PCR (human osteocalcin (OC)) |
| --- | --- | --- | --- | --- | --- | --- | --- | --- |
| O=C(O)c1ccc2c(c1)nc(Nc1cccc(Cl)c1)c1ccncc12 [CX-4945] | – | – | – | no effect | – | – | – | – |
| Nc1nccc2c1ncn2[C@@H]1C=C(CO)[C@@H](O)[C@H]1O [DZNep, 3-deazaneplanocin A] | – | – | – | induced the ability to produce calcified matrix | – | – | – | – |
| CC[C@H](C)C(=O)O[C@H]1C[C@@H](C)C=C2C=C[C@H](C)[C@H](CC[C@@H]3C[C@@H](O)CC(=O)O3)[C@H]21 [LS, lovastatin] | induced the mRNA expression of ALP gene | induced the mRNA expression of Runx2 gene | induced the ability to produce calcified matrix | – | – | – | – | – |
| CC(C)c1nc(N(C)S(C)(=O)=O)nc(-c2ccc(F)cc2)c1/C=C/[C@@H](O)C[C@@H](O)CC(=O)O [RS, rosuvastatin] | induced the mRNA expression of ALP gene | induced the mRNA expression of Runx2 gene | induced the ability to produce calcified matrix | – | – | – | – | induced the mRNA expression of osteocalcin |

Further lines, with some results ahead:

| ALP mRNA expression by real-time RT-PCR [2] | SMILES | Runx2 mRNA expression by real-time RT-PCR (human Runx2 gene) | Alizarin Red S staining intensity (OD 550-650 nm), ability to produce calcified matrix ([1]; induction medium with 10% FBS) | Alizarin Red S staining images and intensity (OD 550-650 nm), ability to produce calcified matrix [1] | Alizarin Red S staining images, ability to produce calcified matrix [3] | Alizarin Red S staining images and intensity, ability to produce calcified matrix ([1]; induction medium with 5% human serum, 28 days (FIG. 12)) | Alizarin Red S staining images and intensity, ability to produce calcified matrix ([1]; induction medium with 10% FBS, 28 days (FIG. 11)) | osteocalcin (OC) mRNA expression by real-time RT-PCR (human osteocalcin (OC)) |
| --- | --- | --- | --- | --- | --- | --- | --- | --- |
| induced the mRNA expression of ALP gene | CC(C)c1c(C(=O)Nc2ccccc2)c(-c2ccccc2)c(-c2ccc(F)cc2)n1CC[C@@H](O)C[C@@H](O)CC(=O)O [AS, atorvastatin] | induced the mRNA expression of Runx2 gene | induced the ability to produce calcified matrix | – | – | – | – | – |
| induced the mRNA expression of ALP gene | NC(=O)c1ccc(-c2nc(-c3ccc4c(c3)OCCO4)c(-c3ccccn3)[nH]2)cc1 [D4476, 4-[4-(2,3-dihydro-1,4-benzodioxin-6-yl)-5-(2-pyridinyl)1H-imidazol-2-yl]-benzamide] | – | induced the ability to produce calcified matrix | induced the ability to produce calcified matrix | strongly induced the ability to produce calcified matrix | induced a higher ability to produce calcified matrix | induced the ability to produce calcified matrix | – |
